Assay results published in patent US11236081B2, “Crystalline salts of corydalmine” (priority 2018, dated 2022).
Where “and” joins values, the source holds several entries; their conditions need not be identical. Equal entries are not always repeated.

Columns and labels:
[1] = Pharmacokinetic study: plasma concentration and plasma PK parameters after IV/PO dosing (LC-MS/MS, WinNonlin); type: in vivo, Male SD Rat; conditions: male SD rat, vehicle 20% HP-β-CD in water (POA, freebase) or water (salts); for F / F, Mean: PO 10 mg/kg (equal to freebase) vs IV 3 mg/kg freebase; for F / concentration in plasma / Tmax / AUCInf / AUClast / AUClast/D / AUC—% Extrap_obs / Cmax / MRTInf_obs / T1/2: individual rats; for F, Mean / concentration in plasma, Mean / AUCInf, Mean / AUClast, Mean / AUClast/D, Mean / AUC—% Extrap_obs, Mean / Cmax, Mean / MRTInf_obs, Mean / T1/2, Mean / Tmax, Mean: mean n=3; for concentration in plasma / concentration in plasma, Mean / Tmax / AUCInf / AUClast / AUClast/D / AUC—% Extrap_obs / Cmax / MRTInf_obs / T1/2 / AUCInf, Mean / AUClast, Mean / AUClast/D, Mean / AUC—% Extrap_obs, Mean / Cmax, Mean / MRTInf_obs, Mean / T1/2, Mean / Tmax, Mean: PO 10 mg/kg (equal to freebase); for Tmax / AUCInf / AUClast / AUClast/D / AUC—% Extrap_obs / Cmax / MRTInf_obs / T1/2 / AUCInf, Mean / AUClast, Mean / AUClast/D, Mean / AUC—% Extrap_obs, Mean / Cmax, Mean / MRTInf_obs, Mean / T1/2, Mean / Tmax, Mean: plasma
From the text: Pharmacokinetic and Brain Penetration Study
Dose formulation processing during dosing: The dose formulations will be kept at room temperature.
Concentrations of Test Article in the plasma samples will be analyzed using a LC-MS/MS method.
WinNonlin (Phoenix™, version 6.1) or other similar software will be used for pharmacokinetic calculations. The following pharmacokinetic parameters will be calculated, whenever possible from the plasma concentration versus time data:
IV administration: T1/2, C0, AUClast, AUCinf, MRTinf, Cl, Vss, Number of Points for Regression.
PO administration: T1/2, Cmax, Tmax, MRTinf, AUCinf, AUClast, F %, Number of Points for Regression.
The pharmacokinetic data will be described using descriptive statistics such as mean, standard deviation.

[2] = Dynamic vapor sorption (DVS), hygroscopicity at 25° C.; type: physicochemical
Experimental: Dynamic Vapor Sorption (DVS)
DVS was determined using DVS Intrinsic (SMS, UK). Transfer about 20 to 50 mg of the compound into a SMS dynamic vapor sorption model DVS and record the weight change with respect to a varying atmospheric humidity at 25° C.

[3] = Solubility studies in water at 2 hours; type: physicochemical

| Structure (SMILES) | F, Mean [1] [%] | concentration in plasma ([1]; 0 h) | concentration in plasma ([1]; 0.25 h, 10 mg/kg) | concentration in plasma, Mean ([1]; 0.25 h) [ng/mL] | concentration in plasma ([1]; 0.5 h, 10 mg/kg) | concentration in plasma, Mean ([1]; 0.5 h) [ng/mL] | concentration in plasma ([1]; 1 h, 10 mg/kg) | concentration in plasma, Mean ([1]; 1 h) [ng/mL] | concentration in plasma ([1]; 2 h, 10 mg/kg) | concentration in plasma, Mean ([1]; 2 h) [ng/mL] | concentration in plasma ([1]; 4 h, 10 mg/kg) | concentration in plasma, Mean ([1]; 4 h) [ng/mL] | concentration in plasma ([1]; 8 h, 10 mg/kg) | concentration in plasma, Mean ([1]; 8 h) [ng/mL] | concentration in plasma ([1]; 24 h, 10 mg/kg) | AUCInf, Mean [1] [ng·h/mL] | AUClast, Mean [1] [ng·h/mL] | AUClast/D, Mean [1] [kg·ng·h/mL/mg] | AUC—% Extrap_obs, Mean [1] [%] | Cmax, Mean [1] [ng/mL] | also measured |
| --- | --- | --- | --- | --- | --- | --- | --- | --- | --- | --- | --- | --- | --- | --- | --- | --- | --- | --- | --- | --- | --- |
| COc1cc2c(cc1OC)[C@@H]1Cc3ccc(O)c(OC)c3CN1CC2.Cl [TLZ-16 HCl] | 27.1 | BLOQ (BLOQ = below limit of quantitation (0.2 ng/mL)) | 236 ng/mL and 239 ng/mL and 385 ng/mL | 287 | 225 ng/mL and 217 ng/mL and 356 ng/mL | 266 | 130 ng/mL and 149 ng/mL and 173 ng/mL | 151 | 135 ng/mL and 129 ng/mL and 115 ng/mL | 126 | 109 ng/mL and 60.3 ng/mL and 79.2 ng/mL | 82.8 | 44.3 ng/mL and 15.6 ng/mL and 14.1 ng/mL | 24.7 | 0.356 ng/mL and BLOQ (BLOQ = below limit of quantitation (0.2 ng/mL)) (2×) | 919 | 891 | 89 | 3.70 | 287 | F ([1]; listed as TLZ-16 HC1): 35.9% and 20.7% and 24.7%; Tmax [1]: 0.25 h; AUCInf ([1]; listed as TLZ-16 HC1, 10 mg/kg): 1217 ng·h/mL and 703 ng·h/mL and 837 ng·h/mL; AUClast ([1]; listed as TLZ-16 HC1, 10 mg/kg): 1216 ng·h/mL and 658 ng·h/mL and 798 ng·h/mL; AUClast/D ([1]; listed as TLZ-16 HC1, 10 mg/kg): 122 kg·ng·h/mL/mg and 65.8 kg·ng·h/mL/mg and 79.8 kg·ng·h/mL/mg; AUC—% Extrap_obs ([1]; listed as TLZ-16 HC1, 10 mg/kg): 0.101% and 6.34% and 4.66%; Cmax ([1]; listed as TLZ-16 HC1, 10 mg/kg): 236 ng/mL and 239 ng/mL and 385 ng/mL; MRTInf_obs ([1]; listed as TLZ-16 HC1, 10 mg/kg): 4.53 h and 2.86 h and 2.58 h; T1/2 ([1]; listed as TLZ-16 HC1, 10 mg/kg): 2.39 h and 1.98 h and 1.92 h; MRTInf_obs, Mean [1]: 3.32 h; T1/2, Mean [1]: 2.09 h; Tmax, Mean [1]: 15 min; hygroscopicity (DVS) ([2]; DVS, 25° C.): slightly hygroscopic; solid form after DVS test ([2]; after DVS test): does not change; water absorbed in DVS ([2]; at 80% RH, 25° C.): about 0.57%; solubility in water [3]: approximately 19.1 mg/mL |
| COc1cc2c(cc1OC)C1Cc3ccc(O)c(OC)c3CN1CC2.CS(=O)(=O)O (stereo not drawn) [TLZ-16 mesylate] | 40.2 | BLOQ (BLOQ = below limit of quantitation (0.2 ng/mL)) | 227 ng/mL and 253 ng/mL and 256 ng/mL | 245 | 192 ng/mL and 233 ng/mL and 338 ng/mL | 254 | 162 ng/mL and 197 ng/mL and 208 ng/mL | 189 | 211 ng/mL and 180 ng/mL and 271 ng/mL | 221 | 208 ng/mL and 155 ng/mL and 122 ng/mL | 162 | 70.3 ng/mL and 40.7 ng/mL and 35.2 ng/mL | 48.7 | BLOQ (BLOQ = below limit of quantitation (0.2 ng/mL)) (2×) and 0.454 ng/mL | 1477 | 1322 | 132 | 9.82 | 273 | F [1]: 39.9% and 42.6% and 38.1%; AUCInf ([1]; 10 mg/kg): 1690 ng·h/mL and 1446 ng·h/mL and 1294 ng·h/mL; AUClast ([1]; 10 mg/kg): 1331 ng·h/mL and 1444 ng·h/mL and 1190 ng·h/mL; AUClast/D ([1]; 10 mg/kg): 133 kg·ng·h/mL/mg and 144 kg·ng·h/mL/mg and 119 kg·ng·h/mL/mg; AUC—% Extrap_obs ([1]; 10 mg/kg): 21.2% and 0.109% and 8.09%; Cmax ([1]; 10 mg/kg): 227 ng/mL and 253 ng/mL and 338 ng/mL; MRTInf_obs ([1]; 10 mg/kg): 5.40 h and 4.15 h and 3.26 h; T1/2 ([1]; 10 mg/kg): 3.54 h and 2.40 h and 2.06 h; Tmax ([1]; 10 mg/kg): 0.25 h (2×) and 0.5 h; MRTInf_obs, Mean [1]: 4.27 h; T1/2, Mean [1]: 2.67 h; Tmax, Mean [1]: 20 min; solubility in water [3]: approximately 20 mg/mL |
